This passage reports melting point results from a melting point compilation (Tetko et al.; mined from patent text by program, amines drawn as free bases though some values may be those of a salt).

The structures appear in SMILES notation. Bounds are passed on as bounds.

The molecule `O=[N+]([O-])c1c(Nc2ccon2)cnc2c1COCC2` showed a melting point of 143 to 145 °C.
The same measure for `O=C1NCC(Cc2ccccc2C(F)(F)F)O1` (stereo not given): 142 to 143 °C; for `CSC(C(N)=O)c1cc(Cl)cc(C(=O)c2ccccc2)c1N` (stereo not given): 174 °C; for `COCCn1nc(-c2sc(N)nc2-c2ccccc2)ccc1=O`: 208 to 210 °C.
The value for `CC(C)c1cccc(C(C)C)c1NC(=O)N(Cc1ccccc1)CC1(c2ncccn2)CCCCC1` was 112 to 114 °C; that for `CC(C)(C)CC(C)(C)c1cc(Cl)c(O)c(-n2nc3ccc(C(F)(F)F)cc3n2)c1` was 72 to 81 °C; that for `CC#CCOc1ccc(C(=O)N(C)C[C@@H](C(=O)NO)N2CCN(S(C)(=O)=O)CC2)cc1` was 145 °C.
For `Cn1ccnc1COc1nn2c(-c3ccccc3F)nnc2cc1C1CCC1`, the melting point stood at 173 °C.
The value for `O=C(c1ccc2ccccc2c1)n1c2cc(O)c(O)cc2c2ccc(O)c(O)c21` was 266 to 270 °C.
The same measure for `CC(C)(C)n1nnc(C(C=O)=C(c2ccc(F)cc2)c2ccc(F)cc2)n1`: 131 to 133 °C; for `O=C(O)Cc1sccc1NC(=O)C(=O)NC(=O)c1ccco1`: 169 °C; for `COC(=O)COc1ccc(NC(=O)CCc2ccc(C#N)cc2)cc1`: 141 °C.
The same measure for `Fc1ccc(N2CCN(Cc3ccc4c(c3)NCCN4)CC2)cc1`: 126 to 127 °C; for `O=C(Cc1ccc2ccccc2c1)N1CC=C(c2cccc(C(F)(F)F)c2)CC1`: 125 to 130 °C.
`Clc1cc2nc(-c3csc(Cc4c(Cl)cccc4Cl)n3)[nH]c2cc1Cl` showed a melting point of 245 to 247 °C.
In turn, `NCCNCCN1CCC(c2cn(-c3ccc(F)cc3)c3ccc(Cl)cc23)CC1` displayed a melting point of 150 °C.
The molecule `CC(=O)c1ccc(-c2ccc(F)cc2)c([N+](=O)[O-])c1` came in with a melting point of 88 to 90 °C.
In the case of `CCOC(=O)C1=C(C)NN=C(C(=O)OC)C1c1ccc([N+](=O)[O-])cc1` (stereo not given), the melting point was 205 to 206 °C.
The same measure for `NC(=O)c1nc(-c2ccccc2)c(-c2ccc(=O)[nH]n2)s1`: > 250 °C; for `CC(C)Cn1cnc2c(C(N)=O)nc3ccccc3c21`: 225 to 226 °C.
The same measure for `CCOC(=O)Nc1cnc(NCCCOc2cccc(CN3CCCCC3)c2)[nH]c1=O`: 171 to 173 °C.
`CCOC(=O)[C@H]1C2C[C@@H](O)[C@](O)(C(=O)OCc3ccccc3)[C@@H]21` (stereo not given in full) returned a melting point of 112 to 114 °C.
For the molecule `Cc1c(-c2ccc(F)cc2)c(-c2ccc(S(C)(=O)=O)cc2)c2n1CCC2`, the melting point is 191 °C.
The same measure for `N#Cc1ncccc1Oc1ccccc1`: 79 to 82 °C.
The value for `COC(=O)C(C)(O[Si](C)(C)C(C)(C)C)c1ccc([N+](=O)[O-])cc1` (stereo not given) was 65 to 66 °C; that for `O=C(c1ccc(Cl)cc1)c1ccc([N+](=O)[O-])cc1Cl` was 117 to 118 °C; that for `CCc1nc2c(C)cc(C)nc2n1Cc1ccc(C(=C(Br)c2nnn[nH]2)c2ccccc2)cc1` was 149 to 151 °C.
The same measure for `O=Cc1nc2cc(F)ccc2s1`: 105 to 107 °C.
As to `N#Cc1c(SCCl)nsc1SCCl`, the melting point was 92 to 93 °C.
The value for `CN(c1ccc(Cl)cc1)c1ncccc1[N+](=O)[O-]` was 107 to 110 °C.
The same measure for `N#Cc1ccc(F)c(-c2ccc(OC(F)(F)F)cc2)c1`: 63.5 to 64.2 °C; for `COC(=O)c1cc2cc(C=O)c3ccccc3c2s1`: 208 °C; for `COc1ccc2cc(-c3nc(-c4ccccc4)no3)c(=O)oc2c1`: 215 °C.
The same measure for `CCSc1nnc(-c2ccccc2)n1Cc1ccc(N)cc1`: 126 to 127 °C.
As for `CC(C)(C)c1ccc(C(=O)Nc2cn3nc(-n4cnc(Br)c4)ccc3n2)cc1`, the melting point lay within 306 to 307 °C.
The value for `CCOC(=O)c1ccc(Cc2ccccc2)cn1` was 109 to 111 °C; that for `O=C(O)c1cc2sccc2cn1` was 212 °C; that for `OC(c1ccccn1)c1cc2ccncc2[nH]1` (stereo not given) was 166 to 169 °C.
The value for `CCc1ccccc1-c1nc(-c2ccc(Cl)cc2)n[nH]1` was 118 to 120 °C; that for `OC1CCc2cc(Cl)c(Cl)cc21` (stereo not given) was 84 °C.
The value for `O=[N+]([O-])c1c(Br)nn(Cc2ccc(Cl)cc2)c1Br` was 109 °C; that for `NC(=O)CNC(=O)c1cccc(-c2ccc(Cl)c3cc(Cc4ccc(F)c(F)c4)sc23)c1` was 188 to 189 °C.
Turning to `c1ccc(CC2CNCCNCCNCCNCCN2)cc1` (stereo not given), the melting point was in the range of 98 to 100 °C.
The value for `O=C1Cc2ccccc2C(c2ccccc2Cl)N1` (stereo not given) was 180 to 182 °C; that for `CCOC(=O)Cc1c2cc(F)ccc2n2c(-c3ccc(S(C)=O)cc3)nccc12` (stereo not given) was 133 to 135 °C.
Molecule `CC=C1CCC2C3CC=C4CC(O[Si](CC)(CC)CC)CC(O[Si](CC)(CC)CC)C4(C)C3CCC12C` (stereo not given) gave a melting point of 81 to 82 °C.
The same measure for `NC(=O)N1C(=O)C(C(=O)c2cccs2)c2ncc(Cl)cc21` (stereo not given): > 250 °C; for `NC(=O)c1cc2c(cc1OCC1CCCCC1)OCCC[C@H]2O`: 164 to 165 °C.
The same measure for `CCC1(CC)CSSC[C@@H](C(=O)O)NC1=O`: 127 to 128 °C.
The same measure for `CC(C)(C)OC(=O)c1ccc(C#Cc2cnc3nc(NC(=O)C(C)(C)C)nc(O)c3c2)cc1`: > 250 °C.
In turn, `O=C(CNC(=O)OCc1ccccc1)ON1C(=O)CCC1=O` returned a melting point of 110 to 112 °C.
In turn, `CCOC(=O)c1cc(NCc2ccccc2)c(Nc2ccc(Cl)cc2)c(S(N)(=O)=O)c1` yielded a melting point of 187 °C.
The same measure for `CCCCCCCCC(CCC(=O)O)C(C)=O` (stereo not given): 36 to 38 °C.
`CCCCCCCCOc1ccc(-c2cnc(-c3ccc(O)cc3)nc2)cc1` had a melting point of 137 °C.
The value for `CCc1nn2ccc3c(c2c1C(C)CNC(C)=O)CCO3` (stereo not given) was 151 to 153 °C; that for `CCCCn1nnc(-c2ccc(C(=O)NCC3CCCC3(C)C)cc2)n1` (stereo not given) was 121 to 123 °C; that for `COC(=O)c1c(/C=C/c2ccccc2)ccc2ccccc12` was 68 to 71 °C.
The value for `COc1cc(Cl)cc(C(=O)C(F)(F)F)c1N` was 124 to 126 °C; that for `CCCCCCCCCCCCCCCCCCOc1ccc(OCc2ccccc2)c(C(=O)O)c1` was 80 to 81 °C; that for `CNc1nc(NC(=O)NS(=O)(=O)c2ccccc2Cl)nc(OC)n1` was 224 to 228 °C.
The value for `CN(C)Cc1cc(C(=O)c2ccc(Cl)s2)cc(C(C)(C)C)c1O` was 137 to 138 °C.
Turning to `CC(C)(C)c1cc(SCc2ccc(C(=O)O)cc2)cc(C(C)(C)C)c1O`, the melting point is 171 °C.
The value for `COC(=O)CCCc1cc2cc(Cl)ccc2n1S(=O)(=O)c1ccc2c(c1)CCC(C)(C)O2` was 126 to 129 °C; that for `COc1ccc(C(=O)N[C@@H]2CCc3cccc(N4CCN(C)CC4)c3C2)cc1` was 186 to 187 °C.
The same measure for `COC(C(=O)O)c1nn(-c2ccc(Cl)cc2)c2c1CCCC2` (stereo not given): 185 to 186 °C.
